In ChEMBL document CHEMBL2203104, “Recent advances in antitubercular natural products” (Eur J Med Chem, 2012):
Converted amounts (≈) assume the structure as drawn.

System: Mycobacterium tuberculosis
Experiment: Antimycobacterial activity against multidrug-resistant Mycobacterium tuberculosis
Assay type: functional

Question: With `CC(=O)O[C@H]1C2=C(C(=O)C(O)=C(C(C)C)C2=O)[C@@]2(C)CCCC(C)(C)[C@@H]2[C@@H]1O` as the compound, how does the MIC read?
Answer: The MIC was 3.12 µg/mL (≈ 7.99 µM).

Question: With `COc1ccc(C(=O)OC2=C(C(C)C)C(=O)C3=C(C2=O)[C@@]2(C)CCCC(C)(C)[C@@H]2[C@H](O)[C@H]3OC(C)=O)cc1` as the compound, how does the MIC read?
Answer: Its MIC is 0.39 µg/mL (≈ 0.743 µM).

Question: Which MIC does the source give for `C[C@H](C/C=C/C(C)(C)OO)[C@H]1CC[C@@]2(C)[C@@H]3CC[C@H]4C(C)(C)[C@@H](O)CC[C@@]45C[C@@]35CC[C@]12C` here?
Answer: The MIC was 12.5 µg/mL (≈ 27.2 µM).

Question: With `CC(C)C1=C(O)C(=O)C2=C(C=C[C@H]3C(C)(C)CCC[C@]23C)C1=O` as the compound, how does the MIC read?
Answer: Its MIC is 12.5 µg/mL (≈ 39.8 µM).

Question: For `CC(C)C1=C(O)C(=O)C2=C(C1=O)[C@H](O)[C@@H](O)[C@H]1C(C)(C)CCC[C@]21C`, which MIC is on record?
Answer: The MIC was 12.5 µg/mL (≈ 35.9 µM).

Question: Which MIC does the source give for `CC(=O)O[C@H]1C2=C(C(=O)C(OC(=O)c3ccc(Cl)cc3)=C(C(C)C)C2=O)[C@@]2(C)CCCC(C)(C)[C@@H]2[C@@H]1O` here?
Answer: Its MIC is 0.78 µg/mL (≈ 1.47 µM).

Question: Which MIC does the source give for `C=C(C)C(CC[C@@H](C)[C@H]1CC[C@@]2(C)[C@@H]3CC[C@H]4C(C)(C)[C@@H](O)CC[C@@]45C[C@@]35CC[C@]12C)OO` (stereo not given in full) here?
Answer: Its MIC is 25 µg/mL (≈ 54.5 µM).

Question: Which MIC does the source give for `CC(C)C1=C(O)C(=O)C2=C(C1=O)[C@H](O)C[C@H]1C(C)(C)CCC[C@]21C` [HORMINONE] here?
Answer: The MIC was 12.5 µg/mL (≈ 37.6 µM).

System: Mycobacterium tuberculosis
Experiment: Antimycobacterial activity against rifampicin-resistant Mycobacterium tuberculosis
Assay type: functional

Question: With `C/C=C(/NC(=O)c1csc(-c2csc(-c3ccc4c(n3)-c3csc(n3)C(C(C)(O)C(C)O)NC(=O)c3csc(n3)C(C(C)C)NC(=O)c3csc(n3)/C(=C/OC)NC(=O)C(C(C)O)NC(=O)c3csc-4n3)n2)n1)C(=O)OC` (stereo not given) [NOCARDITHIOCIN] as the compound, how does the MIC read?
Answer: The MIC was 0.025 µg/mL (≈ 0.0215 µM).

System: not listed separately
Experiment: Selectivity index, ratio of IC50 for african green monkey Vero cells to MIC for multidrug-resistant Mycobacterium tuberculosis
Assay type: functional

Question: Which “Selectivity Index” value does the source give for `COc1ccc(C(=O)OC2=C(C(C)C)C(=O)C3=C(C2=O)[C@@]2(C)CCCC(C)(C)[C@@H]2[C@H](O)[C@H]3OC(C)=O)cc1` here?
Answer: Its value is 6.6.
